Measurements reported in paper PMC10044114, “Mechanisms of Antimicrobial Peptides from Bagasse against Human Pathogenic Bacteria” (Antibiotics, 2023).

Experiments:
Experiment in all cases: Broth dilution growth inhibition (OD600)
Format in all cases: cell-based
[1] = system: Bacillus subtilis ATCC6633; settings: TSB, mean ± SD, triplicate; for Inhibitory percentage, Bacillus subtilis: 100 µg/mL
Experimental: (§1) Three human pathogenic bacteria were selected for investigation, namely Bacillus subtilis ATCC6633, Pseudomonas aeruginosa ATCC28753, and Burkholderia cepacia ATCC25416.
(§2) In evaluating antibacterial activity by the broth dilution assay, human pathogenic bacteria were first prepared in tryptic soy agar (TSA) (Difco BBL, Sparks, MD, USA) for 24 h at 28 °C. Then, a single colony was cultured in tryptic soy broth (TSB) (Difco BBL, Sparks, MD, USA) for 12–16 h to reach an inoculum of 0.05 at OD600. The antibacterial activity of lower than 3 kDa protein hydrolysates/peptides was then determined against the pathogens in triplicate using 96-well microplates, with bacteria in TSB, phosphate-buffered saline (PBS), and antibiotic treatment (ampicillin and kanamycin) used as controls. The final concentration of antibiotics and protein hydrolysates/peptides was 100 µg/mL. After incubation for 0, 2, 4, and 6 h, the OD600 was documented using a microplate reader (Synergy H1 Hybrid Multi-Mode Reader, Biotek, Winusky, VT, USA).
(§3) A completely randomized design was used: protein hydrolysates/peptides from six agricultural wastes, seven agro-industrial wastes, and two fishery wastes as treatments; and human pathogenic bacteria P. aeruginosa ATCC28753, Bacillus subtilis ATCC6633, and Burkholderia cepacia ATCC25416 grown in tryptic soy broth (TSB) (Difco BBL, Sparks, MD, USA) at 28 °C in 96-well plates as experimental units. Experiments were conducted in triplicate and all the results shown in this study are presented as mean ± standard deviation (SD).

[2] = system: Pseudomonas aeruginosa ATCC28753; settings: TSB, mean ± SD, triplicate; for Inhibitory percentage, P. aeruginosa: synthetic peptides
Experimental: as §1, §2, §3

[3] = system: Burkholderia cepacia ATCC25416; settings: TSB, mean ± SD, triplicate; for Inhibitory percentage, Burkholderia cepacia: 100 µg/mL
Experimental: as §1, §2, §3

[4] = lower than 3 kDa hydrolysates and antibiotics, 6 h after treatment, 96-well

| Compound | Inhibitory percentage, Bacillus subtilis ([1]; synthetic peptides) | Inhibitory percentage, P. aeruginosa ([2]; 100 µg/mL) | Inhibitory percentage, Burkholderia cepacia ([3]; synthetic peptides) | other results |
| --- | --- | --- | --- | --- |
| NLWSNEINQDMAEF [Peptide no.3, Asn-Leu-Trp-Ser-Asn-Glu-Ile-Asn-Gln-Asp-Met-Ala-Glu-Phe, synthetic peptide from bagasse (AW6) hydrolysate; LRR receptor-like serine/threonine-protein kinase GSO2 fragment] | 11.33 ± 0.29 | 24.87 ± 0.81 | 23.32 ± 0.68 | – |
| VLSSWGDESTL [compound 2, synthetic peptide from bagasse (AW6) hydrolysate; RNA helicase fragment] | 4.45 ± 0.03 | 23.61 ± 0.12 | 14.92 ± 0.72 | – |
| VSNCL [Peptide no.4, Val-Ser-Asn-Cys-Leu, synthetic peptide from bagasse (AW6) hydrolysate; 3-ketoacyl-CoA synthase fragment] | 10.39 ± 0.33 | 24.70 ± 0.81 | 20.56 ± 0.28 | – |
| CC1(C)S[C@@H]2[C@H](NC(=O)[C@H](N)c3ccccc3)C(=O)N2[C@H]1C(=O)O [ampicillin, reference compound] | – | – | – | inhibition at 100 µg/mL ([1]; Bacillus subtilis, ATCC6633, lower than 3 kDa hydrolysates and antibiotics, 6 h after treatment, 96-well, read-out: Inhibitory percentage, Bacillus subtilis): 85.2 ± 10.6%; inhibition at 100 µg/mL ([2]; Pseudomonas aeruginosa, ATCC28753, lower than 3 kDa hydrolysates and antibiotics, 6 h after treatment, 96-well, read-out: Inhibitory percentage, Pseudomonas aeruginosa): 32 ± 1.59%; inhibition at 100 µg/mL ([3]; Burkholderia cepacia, ATCC25416, lower than 3 kDa hydrolysates and antibiotics, 6 h after treatment, 96-well, read-out: Inhibitory percentage, Burkholderia cepacia): 32.8 ± 4.18% |
| WDTDNLSPDAVAAIKAAHPNVAVMAGL [compound 5, synthetic peptide from bagasse (AW6) hydrolysate; Chitinase fragment] | 5.97 ± 0.06 | 30.34 ± 0.95 | 20.51 ± 0.48 | – |
| GAFHVTGL [compound 1, synthetic peptide from bagasse (AW6) hydrolysate; Photosystem II CP47 reaction center protein fragment] | 3.82 ± 0.09 | 21.74 ± 0.96 | 9.09 ± 0.04 | – |
| NC[C@H]1O[C@H](O[C@H]2[C@H](O)[C@@H](O[C@H]3O[C@H](CO)[C@@H](O)[C@H](N)[C@H]3O)[C@H](N)C[C@@H]2N)[C@H](O)[C@@H](O)[C@@H]1O [kanamycin, reference compound] | – | – | – | Inhibitory percentage, Bacillus subtilis [1, 4]: 77.60 ± 0.85%; Inhibitory percentage, Pseudomonas aeruginosa ([2]; lower than 3 kDa hydrolysates and antibiotics, 100 µg/mL, 6 h after treatment, 96-well): 39.00 ± 2.81%; Inhibitory percentage, Burkholderia cepacia [3, 4]: 87.02 ± 0.42% |
